Measurements published in publication PMC5218480 (PLoS ONE, 2017).

Test system: MV-4-11 cells
Assay: Gene expression microarray analysis (Affymetrix PrimeView) and GSEA
Format: cell-based, human
Parameters: RFU PODN (11730768_x_at) / Fold change /veh PODN (11730768_x_at) / RFU LINC00158 (11744669_a_at) / Fold change /veh LINC00158 (11744669_a_at) / RFU DUSP10 (11751237_a_at) / Fold change /veh DUSP10 (11751237_a_at) / RFU ID3 (11757404_x_at) / Fold change /veh ID3 (11757404_x_at) / RFU PLEKHG5 (11737974_s_at) / Fold change /veh PLEKHG5 (11737974_s_at) / RFU LRRC4B (11730491_at) / Fold change /veh LRRC4B (11730491_at) / RFU GIMAP4 (11747438_a_at) / Fold change /veh GIMAP4 (11747438_a_at) / RFU KRT8 (11758183_x_at) / Fold change /veh KRT8 (11758183_x_at) / RFU CNN1 (11734310_a_at) / Fold change /veh CNN1 (11734310_a_at) / RFU VPS37D (11726825_at) / Fold change /veh VPS37D (11726825_at) / RFU C10orf10 (11716522_x_at) / Fold change /veh C10orf10 (11716522_x_at) / RFU KIR2DL2 /// KIR2DL4 /// KIR2DL5A /// KIR2DL5B /// KIR2DS1 /// KIR2DS2 /// KIR2DS3 /// KIR2DS4 /// KIR3DL3 /// KIR3DL3 /// KIR3DS1 (11738374_at) / Fold change /veh KIR2DL2 /// KIR2DL4 /// KIR2DL5A /// KIR2DL5B /// KIR2DS1 /// KIR2DS2 /// KIR2DS3 /// KIR2DS4 /// KIR3DL3 /// KIR3DL3 /// KIR3DS1 (11738374_at) / RFU C1QL1 (11718748_at) / Fold change /veh C1QL1 (11718748_at) / RFU TMPRSS4 (11747572_a_at) / Fold change /veh TMPRSS4 (11747572_a_at) / RFU HAMP (11756126_x_at) / Fold change /veh HAMP (11756126_x_at) / RFU RNFT2 (11725882_a_at) / Fold change /veh RNFT2 (11725882_a_at) / RFU NR4A2 (11747474_a_at) / Fold change /veh NR4A2 (11747474_a_at) / RFU ABCC12 (11746883_a_at) / Fold change /veh ABCC12 (11746883_a_at) / RFU TMEM136 (11760407_x_at) / Fold change /veh TMEM136 (11760407_x_at) / RFU CLDN22 /// WWC2 (11732394_at) / Fold change /veh CLDN22 /// WWC2 (11732394_at) / RFU HLA-DPB1 (11760878_x_at) / Fold change /veh HLA-DPB1 (11760878_x_at) / RFU SPINT1 (11716480_a_at) / Fold change /veh SPINT1 (11716480_a_at) / RFU GAP43 (11754022_s_at) / Fold change /veh GAP43 (11754022_s_at) / RFU A4GNT (11735810_at) / Fold change /veh A4GNT (11735810_at) / RFU PRB3 (11715151_x_at) / Fold change /veh PRB3 (11715151_x_at) / RFU TUBB4B (11761932_at) / Fold change /veh TUBB4B (11761932_at) / RFU CAPN14 (11732068_a_at) / Fold change /veh CAPN14 (11732068_a_at) / RFU TMCC2 (11721928_a_at) / Fold change /veh TMCC2 (11721928_a_at) / RFU IRGQ (11745062_a_at) / Fold change /veh IRGQ (11745062_a_at) / RFU FAM174B (11720279_a_at) / Fold change /veh FAM174B (11720279_a_at) / RFU TMPRSS4 (11748680_a_at) / Fold change /veh TMPRSS4 (11748680_a_at) / RFU FAM212B (11763350_a_at) / Fold change /veh FAM212B (11763350_a_at) / RFU PLEKHG5 (11743358_a_at) / Fold change /veh PLEKHG5 (11743358_a_at) / RFU ZSCAN30 (11745921_a_at) / Fold change /veh ZSCAN30 (11745921_a_at) / RFU CMKLR1 (11741424_a_at) / Fold change /veh CMKLR1 (11741424_a_at) / RFU LOC101060620 /// MAPK8IP1 (11723275_at) / Fold change /veh LOC101060620 /// MAPK8IP1 (11723275_at) / RFU SPTSSB (11747773_x_at) / Fold change /veh SPTSSB (11747773_x_at) / RFU PRSS12 (11739890_at) / Fold change /veh PRSS12 (11739890_at) / RFU BIN1 (11741810_x_at) / Fold change /veh BIN1 (11741810_x_at) / RFU WNT11 (11732464_a_at) / Fold change /veh WNT11 (11732464_a_at) / RFU C10orf10 (11716521_a_at) / Fold change /veh C10orf10 (11716521_a_at) / RFU C5orf56 (11738089_at) / Fold change /veh C5orf56 (11738089_at) / RFU CYB561 (11721691_x_at) / Fold change /veh CYB561 (11721691_x_at) / RFU ANKRD19P (11752326_a_at) / Fold change /veh ANKRD19P (11752326_a_at) / RFU OR2T12 /// OR2T33 /// OR2T8 (11738714_s_at) / Fold change /veh OR2T12 /// OR2T33 /// OR2T8 (11738714_s_at) / RFU VCAN (11748164_a_at) / Fold change /veh VCAN (11748164_a_at) / RFU JSRP1 (11732532_at) / Fold change /veh JSRP1 (11732532_at) / RFU KRTAP10-11 (11738290_x_at) / Fold change /veh KRTAP10-11 (11738290_x_at) / RFU MYO3A (11730013_a_at) / Fold change /veh MYO3A (11730013_a_at) / RFU EBF3 (11725865_a_at) / Fold change /veh EBF3 (11725865_a_at) / RFU CAMK2N1 (11719241_x_at) / Fold change /veh CAMK2N1 (11719241_x_at) / RFU C5orf56 (11738088_a_at) / Fold change /veh C5orf56 (11738088_a_at) / RFU OLFML3 (11715873_a_at) / Fold change /veh OLFML3 (11715873_a_at) / RFU LOC100653217 /// NTM (11731650_a_at) / Fold change /veh LOC100653217 /// NTM (11731650_a_at) / RFU MAPK11 (11762145_a_at) / Fold change /veh MAPK11 (11762145_a_at) / RFU FIZ1 (11724087_x_at) / Fold change /veh FIZ1 (11724087_x_at) / RFU OASL (11726364_x_at) / Fold change /veh OASL (11726364_x_at) / RFU SOX15 (11748057_x_at) / Fold change /veh SOX15 (11748057_x_at) / RFU CD79A (11719716_a_at) / Fold change /veh CD79A (11719716_a_at) / RFU HIST1H1D (11736915_at) / Fold change /veh HIST1H1D (11736915_at) / RFU CASKIN2 (11723855_a_at) / Fold change /veh CASKIN2 (11723855_a_at) / RFU LOC730098 (11760151_x_at) / Fold change /veh LOC730098 (11760151_x_at) / RFU OR4N2 (11742367_at) / Fold change /veh OR4N2 (11742367_at) / RFU PRRT2 (11749266_a_at) / Fold change /veh PRRT2 (11749266_a_at) / RFU SNX32 (11753110_a_at) / Fold change /veh SNX32 (11753110_a_at) / RFU CDHR5 (11726645_a_at) / Fold change /veh CDHR5 (11726645_a_at) / RFU RCAN1 (11760418_a_at) / Fold change /veh RCAN1 (11760418_a_at) / RFU FAM167A (11723789_a_at) / Fold change /veh FAM167A (11723789_a_at) / RFU FAM26E (11764081_at) / Fold change /veh FAM26E (11764081_at) / RFU ISYNA1 (11749810_s_at) / Fold change /veh ISYNA1 (11749810_s_at) / RFU ACY1 (11761880_at) / Fold change /veh ACY1 (11761880_at) / RFU 11764098_at / Fold change /veh 11764098_at / RFU SAMD14 (11745864_x_at) / Fold change /veh SAMD14 (11745864_x_at) / RFU NPB (11741838_a_at) / Fold change /veh NPB (11741838_a_at) / RFU TMPRSS6 (11731388_a_at) / Fold change /veh TMPRSS6 (11731388_a_at) / RFU KRTAP10-2 (11738614_at) / Fold change /veh KRTAP10-2 (11738614_at) / RFU ARHGAP8 /// PRR5-ARHGAP8 (11727945_x_at) / Fold change /veh ARHGAP8 /// PRR5-ARHGAP8 (11727945_x_at) / RFU KRTAP5-7 /// NADSYN1 (11734609_at) / Fold change /veh KRTAP5-7 /// NADSYN1 (11734609_at) / RFU RASL12 (11751679_a_at) / Fold change /veh RASL12 (11751679_a_at) / RFU CDKN2B (11736163_a_at) / Fold change /veh CDKN2B (11736163_a_at) / RFU PRF1 (11729649_at) / Fold change /veh PRF1 (11729649_at) / RFU, ZNF638 /// ZNF638-IT1 / Fold change vs veh, ZNF638 /// ZNF638-IT1 / RFU, PANK3 / Fold change vs veh, PANK3 / RFU, SH3YL1 / Fold change vs veh, SH3YL1 / RFU, ZEB2 / Fold change vs veh, ZEB2 / RFU, NRIP1 / Fold change vs veh, NRIP1 / RFU, PTTG1IP / Fold change vs veh, PTTG1IP / RFU, CAPN2 / Fold change vs veh, CAPN2 / RFU, MED14 / Fold change vs veh, MED14 / RFU, SNORA58 / Fold change vs veh, SNORA58 / RFU, C1orf63 / Fold change vs veh, C1orf63 / RFU, LRRFIP1 / Fold change vs veh, LRRFIP1 / RFU, NDUFAF7 / Fold change vs veh, NDUFAF7 / RFU, SLC12A2 / Fold change vs veh, SLC12A2 / RFU, IBTK / Fold change vs veh, IBTK / RFU, ESF1 / Fold change vs veh, ESF1 / Fold change vs veh, TMEM50B / RFU, TAOK1 / Fold change vs veh, TAOK1 / RFU, ACBD3 / Fold change vs veh, ACBD3 / RFU, TMA16 / Fold change vs veh, TMA16 / RFU, RWDD3 / Fold change vs veh, RWDD3 / RFU, BCAT1 / Fold change vs veh, BCAT1 / RFU, EDEM3 / Fold change vs veh, EDEM3 / RFU, TMEM33 / Fold change vs veh, TMEM33 / RFU, WDR75 / Fold change vs veh, WDR75 / RFU, AHCTF1 / Fold change vs veh, AHCTF1 / RFU, TFRC / Fold change vs veh, TFRC / RFU, ZDHHC17 / Fold change vs veh, ZDHHC17 / RFU, NOM1 / Fold change vs veh, NOM1 / RFU, ARL8B / Fold change vs veh, ARL8B / RFU, ZBTB11 / Fold change vs veh, ZBTB11 / RFU, TAMM41 / Fold change vs veh, TAMM41 / RFU, KIAA1704 /// LOC100996395 / Fold change vs veh, KIAA1704 /// LOC100996395 / RFU, ING1 / Fold change vs veh, ING1 / RFU, TRMT61B / Fold change vs veh, TRMT61B / RFU, FUBP3 / Fold change vs veh, FUBP3 / RFU, TP53 / Fold change vs veh, TP53 / RFU, TNKS2 / Fold change vs veh, TNKS2 / RFU, ZFP14 / Fold change vs veh, ZFP14 / RFU, ACTR2 / Fold change vs veh, ACTR2 / RFU, PPP3R1 / Fold change vs veh, PPP3R1 / RFU, PIK3R1 / Fold change vs veh, PIK3R1 / RFU, HNRNPA1 / Fold change vs veh, HNRNPA1 / RFU, RNF170 / Fold change vs veh, RNF170 / RFU, ZNF28 / Fold change vs veh, ZNF28 / RFU, RNGTT / Fold change vs veh, RNGTT / RFU, OGT / Fold change vs veh, OGT / RFU, BRD1 / Fold change vs veh, BRD1 / RFU, MARS / Fold change vs veh, MARS / RFU, ZNF655 / Fold change vs veh, ZNF655 / RFU, FAHD1 / Fold change vs veh, FAHD1 / RFU, BDP1 / Fold change vs veh, BDP1 / RFU, LRRCC1 / Fold change vs veh, LRRCC1 / RFU, ARID1A / Fold change vs veh, ARID1A / RFU, ZNF146 / Fold change vs veh, ZNF146 / RFU, ZNF330 / Fold change vs veh, ZNF330 / RFU, GPN3 / Fold change vs veh, GPN3 / RFU, C9orf123 / Fold change vs veh, C9orf123 / RFU, N4BP2L2 / Fold change vs veh, N4BP2L2 / RFU, ARFIP1 / Fold change vs veh, ARFIP1 / RFU, FAM179B / Fold change vs veh, FAM179B / RFU, BCL10 / Fold change vs veh, BCL10 / RFU, UHRF1BP1L / Fold change vs veh, UHRF1BP1L / RFU, BET1 / Fold change vs veh, BET1 / RFU, CNOT2 / Fold change vs veh, CNOT2 / RFU, ZNF268 / Fold change vs veh, ZNF268 / Fold change vs veh, ZNF507 / RFU, DGCR2 / Fold change vs veh, DGCR2 / RFU, WDSUB1 / Fold change vs veh, WDSUB1 / Fold change vs veh, HSP90B1 /// MIR3652 / RFU, ADSS / Fold change vs veh, ADSS / RFU, GK / Fold change vs veh, GK / RFU, ZNF148 / Fold change vs veh, ZNF148 / RFU, TAF9 / Fold change vs veh, TAF9 / RFU, SLC1A5 / Fold change vs veh, SLC1A5 / RFU, SLMO2 / Fold change vs veh, SLMO2 / RFU, ABCC4 / Fold change vs veh, ABCC4 / RFU, LOC101060439 /// RAP1B / Fold change vs veh, LOC101060439 /// RAP1B / RFU, RFX7 / Fold change vs veh, RFX7 / RFU, GTPBP10 / Fold change vs veh, GTPBP10 / RFU, CNEP1R1 / Fold change vs veh, CNEP1R1 / RFU, BIVM-ERCC5 /// ERCC5 / Fold change vs veh, BIVM-ERCC5 /// ERCC5 / RFU, ILF3 / Fold change vs veh, ILF3 / RFU 11762660_at / Fold change /veh 11762660_at / RFU VCAN (11757783_s_at) / Fold change /veh VCAN (11757783_s_at) / RFU DDX43 (11728927_at) / Fold change /veh DDX43 (11728927_at) / RFU KRT8 (11758188_x_at) / Fold change /veh KRT8 (11758188_x_at) / RFU NKD1 (11759106_at) / Fold change /veh NKD1 (11759106_at) / RFU SRD5A1 (11742802_a_at) / Fold change /veh SRD5A1 (11742802_a_at) / RFU TPSAB1 /// TPSB2 (11721975_s_at) / Fold change /veh TPSAB1 /// TPSB2 (11721975_s_at) / RFU GSTM3 (11746129_a_at) / Fold change /veh GSTM3 (11746129_a_at) / RFU IL23R (11737362_x_at) / Fold change /veh IL23R (11737362_x_at) / RFU TMEM51 (11727254_a_at) / Fold change /veh TMEM51 (11727254_a_at) / RFU PIWIL2 (11732686_x_at) / Fold change /veh PIWIL2 (11732686_x_at) / RFU ORM1 (11744905_x_at) / Fold change /veh ORM1 (11744905_x_at) / RFU CCDC152 (11743942_at) / Fold change /veh CCDC152 (11743942_at) / RFU ECM1 (11717891_a_at) / Fold change /veh ECM1 (11717891_a_at) / RFU IL23R (11748794_a_at) / Fold change /veh IL23R (11748794_a_at) / RFU TNFAIP8L3 (11732012_x_at) / Fold change /veh TNFAIP8L3 (11732012_x_at) / RFU MBOAT4 (11741988_at) / Fold change /veh MBOAT4 (11741988_at) / RFU 11764193_at / Fold change /veh 11764193_at / RFU TMEM53 (11763286_at) / Fold change /veh TMEM53 (11763286_at) / RFU MAGEB2 (11727129_at) / Fold change /veh MAGEB2 (11727129_at) / RFU TMEM200A (11744735_a_at) / Fold change /veh TMEM200A (11744735_a_at) / RFU CCDC152 (11751479_a_at) / Fold change /veh CCDC152 (11751479_a_at) / RFU FAM211A (11726209_a_at) / Fold change /veh FAM211A (11726209_a_at) / RFU RGS16 (11746705_a_at) / Fold change /veh RGS16 (11746705_a_at) / RFU VCAN (11755009_s_at) / Fold change /veh VCAN (11755009_s_at) / RFU RHOB (11743442_s_at) / Fold change /veh RHOB (11743442_s_at) / RFU RGS16 (11720943_a_at) / Fold change /veh RGS16 (11720943_a_at) / RFU RGS16 (11720944_at) / Fold change /veh RGS16 (11720944_at) / RFU, VPS4B / Fold change vs veh, VPS4B / RFU, CREB1 / Fold change vs veh, CREB1 / RFU, DNAJC13 / Fold change vs veh, DNAJC13 / RFU, GNAQ / Fold change vs veh, GNAQ / RFU, CDK5R1 / Fold change vs veh, CDK5R1 / RFU, ZRANB3 / Fold change vs veh, ZRANB3 / RFU, CUL4A / Fold change vs veh, CUL4A / RFU, CCNY / Fold change vs veh, CCNY / RFU, UFL1 / Fold change vs veh, UFL1 / RFU, COG3 / Fold change vs veh, COG3 / RFU, DIAPH2 / Fold change vs veh, DIAPH2 / RFU, SKA2 / Fold change vs veh, SKA2 / RFU, AFF3 / Fold change vs veh, AFF3 / RFU, LMF1 / Fold change vs veh, LMF1 / RFU, IPO11 / Fold change vs veh, IPO11 / RFU, DFFB / Fold change vs veh, DFFB / RFU, FOXP1 / Fold change vs veh, FOXP1 / RFU, CARD8 / Fold change vs veh, CARD8 / RFU, STRN3 / Fold change vs veh, STRN3 / RFU, ADK / Fold change vs veh, ADK / RFU, RASSF2 / Fold change vs veh, RASSF2 / RFU, WIPF1 / Fold change vs veh, WIPF1 / RFU, LARP1B / Fold change vs veh, LARP1B / RFU, RASA1 / Fold change vs veh, RASA1 / RFU, RB1 / Fold change vs veh, RB1 / RFU, PPFIA1 / Fold change vs veh, PPFIA1 / RFU, MAT2A / Fold change vs veh, MAT2A / RFU, CCT5 / Fold change vs veh, CCT5 / RFU, WDR92 / Fold change vs veh, WDR92 / RFU, CUX1 / Fold change vs veh, CUX1 / RFU, TTC7A / Fold change vs veh, TTC7A / RFU, TMEM135 / Fold change vs veh, TMEM135 / RFU, DEPTOR / Fold change vs veh, DEPTOR / RFU, CPM / Fold change vs veh, CPM / RFU, DNAJB6 / Fold change vs veh, DNAJB6 / RFU, CACNA2D3 / Fold change vs veh, CACNA2D3 / RFU, DTX4 / Fold change vs veh, DTX4 / RFU, TFCP2 / Fold change vs veh, TFCP2 / RFU, GMCL1 /// GMCL1P1 / Fold change vs veh, GMCL1 /// GMCL1P1 / RFU, AEBP2 / Fold change vs veh, AEBP2 / RFU, SNHG1 /// SNORD22 /// SNORD25 /// SNORD26 /// SNORD27 /// SNORD28 /// SNORD29 /// SNORD31 / Fold change vs veh, SNHG1 /// SNORD22 /// SNORD25 /// SNORD26 /// SNORD27 /// SNORD28 /// SNORD29 /// SNORD31 / Fold change (Aza/veh), C12orf56 (ProbeSet 11735607_a_at) / Fold change (ACY-1035/veh), C12orf56 (ProbeSet 11735607_a_at) / Fold change (Aza/veh), FGFR1OP (ProbeSet 11751329_s_at) / Fold change (ACY-1035/veh), FGFR1OP (ProbeSet 11751329_s_at) / Fold change (Aza/veh), VPS36 (ProbeSet 11739960_a_at) / Fold change (ACY-1035/veh), VPS36 (ProbeSet 11739960_a_at) / RFU SYPL1 (11715823_x_at) / Fold change /veh SYPL1 (11715823_x_at) / RFU IGFBP7 (11715501_s_at) / Fold change /veh IGFBP7 (11715501_s_at) / RFU REEP3 (11722064_at) / Fold change /veh REEP3 (11722064_at) / RFU IGLL1 (11728026_x_at) / Fold change /veh IGLL1 (11728026_x_at): dose or concentration left out as unconfirmed
Conditions: ProbeSet 11732281_s_at; LIST D

## Nc1ccc(-c2cccs2)cc1NC(=O)c1ccc2c(c1)cc(C1CC1)n2CCN1CCOCC1 [ACY-1035]
  RFU, FOXP1: 243.86 RFU
